Type in all cases: functional
Test [1] concerns Mycobacterium tuberculosis. As to the kind of experiment: Antitubercular activity against extensively drug resistant Mycobacterium tuberculosis H37Rv assessed as inhibition of bacterial growth by alamar blue assay. A general note: The colour change of resazurin is a common sign of viable cells or microbes.
Test [2] has as its system Mycobacterium tuberculosis. The test is described as follows: Antitubercular activity against multidrug resistant Mycobacterium tuberculosis H37Rv assessed as inhibition of bacterial growth by alamar blue assay.
Test [3] relates to Mycobacterium tuberculosis. As to the kind of experiment: Antimycobacterial activity against isoniazid and rifampicin resistant Mycobacterium tuberculosis clinical isolate D.
Test [4] concerns Mycobacterium tuberculosis. As to the kind of experiment: Antimycobacterial activity against isoniazid and ethionamide resistant Mycobacterium tuberculosis clinical isolate E.
The test system of test [5] is Mycobacterium tuberculosis. As to the kind of experiment: Antimycobacterial activity against isoniazid, streptomycin, rifampicin, ethambutol, ethionamide and ofloxacin resistant Mycobacterium tuberculosis clinical isolate H.
Test [6] relates to Mycobacterium tuberculosis. As to the kind of experiment: Antimycobacterial activity against isoniazid, streptomycin and ethionamide resistant Mycobacterium tuberculosis clinical isolate F.
The subject of test [7] is Mycobacterium tuberculosis. As to the kind of experiment: Antimycobacterial activity against isoniazid, streptomycin, rifampicin, ethambutol and ethionamide resistant Mycobacterium tuberculosis clinical isolate G.
Test [8] deals with Mycobacterium tuberculosis. The test is described as follows: Antimycobacterial activity against isoniazid and ethionamide resistant Mycobacterium tuberculosis clinical isolate B.
Test [9] relates to Mycobacterium tuberculosis. The test is described as follows: Antimycobacterial activity against isoniazid, streptomycin, ethambutol and ethionamide resistant Mycobacterium tuberculosis clinical isolate A.
Test [10] has as its system Mycobacterium tuberculosis. The test is described as follows: Antimycobacterial activity against isoniazid, streptomycin, and rifampicin resistant Mycobacterium tuberculosis clinical isolate C.
Test [11] deals with Mycobacterium tuberculosis. As to the kind of experiment: Antimycobacterial activity against Mycobacterium tuberculosis clinical isolate 124-0 harboring wild type gyrA and wild type gyrB.
In test [12] the test system is Mycobacterium tuberculosis. The test is described as follows: Antimycobacterial activity against Mycobacterium tuberculosis clinical isolate 427-18 harboring gyrA QRDR c270t (A90V) mutant and wild type gyrB.
Test [13] concerns Mycobacterium tuberculosis. As to the kind of experiment: Antimycobacterial activity against Mycobacterium tuberculosis clinical isolate 775-0 harboring gyrA QRDR c270t (A90V) mutant and wild type gyrB.
For test [14], the system named is Mycobacterium tuberculosis. As to the kind of experiment: Antimycobacterial activity against Mycobacterium tuberculosis clinical isolate 581-17 harboring gyrA QRDR c270t (A90V) mutant and wild type gyrB.
Test [15] concerns Mycobacterium tuberculosis. The test is described as follows: Antimycobacterial activity against Mycobacterium tuberculosis clinical isolate 742-0 harboring gyrA QRDR a282g (D94G) mutant and wild type gyrB.
Test [16] has as its system Mycobacterium tuberculosis. As to the kind of experiment: Antimycobacterial activity against Mycobacterium tuberculosis clinical isolate 666-0 harboring wild type gyrA and wild type gyrB.
Test [17] deals with Mycobacterium tuberculosis. The test is described as follows: Antimycobacterial activity against Mycobacterium tuberculosis clinical isolate 152-0 harboring wild type gyrA and wild type gyrB.
The subject of test [18] is Mycobacterium tuberculosis. The test is described as follows: Antimycobacterial activity against Mycobacterium tuberculosis H37Rv harboring wild type gyrA and wild type gyrB.
The test system of test [19] is Mycobacterium tuberculosis. As to the kind of experiment: Antimycobacterial activity against Mycobacterium tuberculosis clinical isolate 410-11 harboring wild type and wild type gyrB.
In test [20] the test system is Mycobacterium tuberculosis. As to the kind of experiment: Antimycobacterial activity against Mycobacterium tuberculosis clinical isolate 199-00 harboring gyrA QRDR c270t (A90V) mutant and wild type gyrB.
For test [21], the system named is Mycobacterium tuberculosis. The test is described as follows: Antimycobacterial activity against Mycobacterium tuberculosis clinical isolate 383-0 harboring wild type gyrA and wild type gyrB.

The values that follow come from ChEMBL document CHEMBL5244273, “Tuberculosis: An Overview of the Immunogenic Response, Disease Progression, and Medicinal Chemistry Efforts in the Last Decade toward the Development of Potential Drugs for Extensively Drug-Resistant Tuberculosis Strains” (J Med Chem, 2021).

Values after ≈ are worked out from the molar mass of the structure shown.

As a reminder, the MIC is the lowest concentration that inhibits growth of the organism.

Turning to `O=C(Cc1ccccc1F)NNC(=O)c1ccncc1`, the MIC stood at 250 µg/mL (≈ 915 µM) in [1] and 62.5 µg/mL (≈ 229 µM) in test [2].
Take `Oc1ccc(-c2nnc(S)o2)cc1`: the MIC in [3] was greater than 32 µg/mL; in [4] it was 16 µg/mL (≈ 82.4 µM); in [5], 2 µg/mL (≈ 10.3 µM); in test [6] it was 8 µg/mL (≈ 41.2 µM); in test [7], greater than 32 µg/mL; in test [8], 8 µg/mL (≈ 41.2 µM). Besides, the minimal inhibitory concentration (MIC) in test [9] was greater than 32 µg/mL; in test [10] it was 16 µg/mL (≈ 82.4 µM).
In the case of `CC(C)(C)n1cc(C(=O)O)c(=O)c2cc(F)c(-c3cccnc3)cc21`, the MIC in [11] was found to be 1 µg/mL (≈ 2.94 µM); in test [12], 1 µg/mL (≈ 2.94 µM); in [13], 2 µg/mL (≈ 5.88 µM); in test [14], 2 µg/mL (≈ 5.88 µM); in test [15], 32 µg/mL (≈ 94 µM); in test [16], 4 µg/mL (≈ 11.8 µM). The MIC in test [17] amounted to 4 µg/mL (≈ 11.8 µM); in test [18] it was 0.5 µg/mL (≈ 1.47 µM); in [19], 4 µg/mL (≈ 11.8 µM); in test [20], 4 µg/mL (≈ 11.8 µM); in test [21], 2 µg/mL (≈ 5.88 µM).
On to `CC(C)(C)n1cc(C(=O)O)c(=O)c2cc(F)c(-c3ccc(O)cc3)cc21`, for which the MIC in test [11] turned out to be 1 µg/mL (≈ 2.81 µM); in [12], 1 µg/mL (≈ 2.81 µM); in test [13], 2 µg/mL (≈ 5.63 µM); in test [14], 8 µg/mL (≈ 22.5 µM); in test [15], 2 µg/mL (≈ 5.63 µM); in [16] it was 2 µg/mL (≈ 5.63 µM). The MIC in [17] amounted to 2 µg/mL (≈ 5.63 µM); in [18] it was 1 µg/mL (≈ 2.81 µM); in test [19], 2 µg/mL (≈ 5.63 µM); in test [20] it was 2 µg/mL (≈ 5.63 µM); in test [21], 2 µg/mL (≈ 5.63 µM).
